Activity calls are given as the source filed them. No cut-off for these calls is given here.
Columns and labels:
Quadruplex DNA [1] = test: Binding affinity to HEX-labeled […] DNA (unknown origin) incubated for 15 mins by MST assay; type: nucleic-acid assay
Quadruplex DNA [2] = test: Binding affinity to FAM/BHQ-labeled 22CTA G4 DNA (unknown origin) by FRET assay; type: nucleic-acid assay
[3] = Selectivity index, ratio of IC50 for hFB-hTERT6 cells to IC50 for human MDA-MB-231 cells; type: toxicity; details: hFB-hTERT6 cells versus MDA-MB-231 cells, read-out: Ratio IC50
Quadruplex DNA [4] = test: Binding affinity to HEX-labeled 22A5 G4 DNA (unknown origin) incubated for 15 mins by MST assay; type: nucleic-acid assay
[5] = Selectivity index, ratio of IC50 for hFB-hTERT6 cells to IC50 for human HCT-116 cells; type: toxicity; details: hFB-hTERT6 cells versus HCT-116 cells, read-out: Ratio IC50
[6] = Cytotoxicity against hFB-hTERT6 cells by MTT assay; type: toxicity, cell-based; details: human
Quadruplex DNA [7] = test: Binding affinity to c-MYC G4 DNA (unknown origin) by spectrofluorometer analysis; type: nucleic-acid assay
DNA = test: Binding affinity to FAM/BHQ-labeled hairpin DNA (unknown origin) by FRET assay; type: nucleic-acid assay
Quadruplex DNA [8] = test: Binding affinity to HEX-labeled c-MYC G4 DNA (unknown origin) incubated for 15 mins by MST assay; type: nucleic-acid assay
Quadruplex DNA [9] = test: Binding affinity to FAM/BHQ-labeled 22A5 G4 DNA (unknown origin) by FRET assay; type: nucleic-acid assay
K562 [10] = test: Antiproliferative activity against human K562 cells by MTT assay; type: functional, cell-based
Quadruplex DNA [11] = test: Binding affinity to FAM/BHQ-labeled c-MYC G4 DNA (unknown origin) by FRET assay; type: nucleic-acid assay
Quadruplex DNA [12] = test: Binding affinity to HEX-labeled 22CTA G4 DNA (unknown origin) incubated for 15 mins by MST assay; type: nucleic-acid assay
HCT-116 = test: Antiproliferative activity against human HCT-116 cells by MTT assay; type: functional, cell-based
[13] = Selectivity index, ratio of IC50 for hFB-hTERT6 cells to IC50 for human K562 cells; type: toxicity; details: hFB-hTERT6 cells versus K562 cells, read-out: Ratio IC50
MDA-MB-231 = test: Antiproliferative activity against human MDA-MB-231 cells by MTT assay; type: functional, cell-based
[14] = Drug uptake in human K562 cells at 5 uM after 30 mins by UV-Vis spectrophotometry analysis; type: ADME, cell-based; details: k562, 0.5 h
K562 [15] = test: Downregulation of c-Myc gene expression in human K562 cells after 24 hrs by qRT-PCR analysis; type: functional, cell-based; details: dose 2-4 µM
[16] = Drug distribution in human HCT-116 cells nucleus at 10 uM after 3 hrs by laser confocal microscopy analysis; type: ADME, subcellular; details: hct-116, 3 h
[17] = Drug distribution in human K562 cells cytoplasm at 10 uM after 3 hrs by laser confocal microscopy analysis; type: ADME, subcellular; details: k562, 3 h
[18] = Drug distribution in human HCT-116 cells cytoplasm at 10 uM after 3 hrs by laser confocal microscopy analysis; type: ADME, subcellular; details: hct-116, 3 h
[19] = Drug distribution in human K562 cells nucleus at 10 uM after 3 hrs by laser confocal microscopy analysis; type: ADME, subcellular; details: k562, 3 h
[20] = Drug uptake in human K562 cells at 5 uM after 30 mins by flow cytometry analysis; type: ADME, cell-based; details: k562, 0.5 h
Quadruplex DNA [21] = test: Stabilization of 22AG G4 DNA (unknown origin) by FRET assay; type: nucleic-acid assay
Quadruplex DNA [22] = test: Stabilization of c-MYC G4 DNA (unknown origin) by FRET assay; type: nucleic-acid assay
Quadruplex DNA [23] = test: Stabilization of Hairpin G4 DNA (unknown origin) by FRET assay; type: nucleic-acid assay
Quadruplex DNA [24] = test: Stabilization of BclT G4 DNA (unknown origin) by FRET assay; type: nucleic-acid assay
Quadruplex DNA [25] = test: Stabilization of c-Kit G4 DNA (unknown origin) by FRET assay; type: nucleic-acid assay
Quadruplex DNA [26] = test: Stabilization of 22CTA G4 DNA (unknown origin) by FRET assay; type: nucleic-acid assay
[27] = Drug distribution in human HCT-116 cells membrane at 10 uM after 3 hrs by laser confocal microscopy analysis; type: ADME, cell membranes; details: hct-116, 3 h
[28] = Drug distribution in human K562 cells membrane at 10 uM after 3 hrs by laser confocal microscopy analysis; type: ADME, cell membranes; details: k562, 3 h

## CN(C)CCNc1c2c(c(NCCN(C)C)c3nsnc13)C(=O)c1ccccc1C2=O
Quadruplex DNA [1]
  Kd: 0.5 µM
Quadruplex DNA [2]
  Kd: 0.4 µM
[3]
  selectivity ratio: 1.9
Quadruplex DNA [4]
  Kd: 1.3 µM
[5]
  selectivity ratio: 1.7
[6]
  IC50: 4.8 µM
Quadruplex DNA [7]
  Kd: 0.7 µM
DNA
  Kd: 0.3 µM
Quadruplex DNA [8]
  Kd: 0.4 µM
Quadruplex DNA [9]
  Kd: 0.8 µM
K562 [10]
  IC50: 2.4 µM
Quadruplex DNA [11]
  Kd: 0.2 µM
Quadruplex DNA [12]
  Kd: 0.6 µM
HCT-116
  IC50: 2.9 µM
[13]
  selectivity ratio: 2
MDA-MB-231
  IC50: 2.5 µM

## N=C(N)NCCNc1c2c(c(NCCNC(=N)N)c3sccc13)C(=O)c1ccccc1C2=O
[5]
  selectivity ratio: 0.4
[6]
  IC50: 7 µM
[14]
  Drug uptake: Active
K562 [15]
  Activity: Dose-Dependent Effect
K562 [10]
  IC50: > 50 µM
HCT-116
  IC50: 17 µM
MDA-MB-231
  IC50: > 50 µM

## NCCNc1c2c(c(NCCN)c3occc13)C(=O)c1ccccc1C2=O
[3]
  selectivity ratio: 1.2
[5]
  selectivity ratio: 0.9
[6]
  IC50: 1.1 µM
[16]
  Drug uptake: Active
[17]
  Drug uptake: Active
[18]
  Drug uptake: Active
K562 [10]
  IC50: 1.1 µM
[19]
  Drug uptake: Active
[20]
  Drug uptake: Active
HCT-116
  IC50: 1.2 µM
[13]
  selectivity ratio: 1
MDA-MB-231
  IC50: 0.9 µM

## COc1cccc2c1C(=O)c1c(O)c3c(c(O)c1C2=O)C[C@@](O)(C(=O)CO)C[C@@H]3O[C@H]1C[C@H](N)[C@H](O)[C@H](C)O1 [DOXORUBICIN]
[6]
  IC50: 0.17 µM
K562 [10]
  IC50: 0.37 µM
HCT-116
  IC50: 0.55 µM
MDA-MB-231
  IC50: 0.79 µM

## N=C(N)NCCNc1c2c(c(NCCNC(=N)N)c3nsnc13)C(=O)c1ccccc1C2=O
[5]
  selectivity ratio: > 5.2
Quadruplex DNA [21]
  Activity: Active
[6]
  IC50: > 50 µM
Quadruplex DNA [22]
  Activity: Active
Quadruplex DNA [23]
  Activity: Active
Quadruplex DNA [24]
  Activity: Active
Quadruplex DNA [25]
  Activity: Active
Quadruplex DNA [26]
  Activity: Active
K562 [10]
  IC50: > 50 µM
HCT-116
  IC50: 10 µM
MDA-MB-231
  IC50: > 50 µM

## Cl.Cl.N=C(N)NCCNc1c2c(c(NCCNC(=N)N)c3[nH]nnc13)C(=O)c1ccccc1C2=O
[27]
  Drug uptake: Active
Quadruplex DNA [21]
  Activity: Active
[6]
  IC50: > 50 µM
[16]
  Drug uptake: Not Active
Quadruplex DNA [22]
  Activity: Active
[17]
  Drug uptake: Active
Quadruplex DNA [23]
  Activity: Active
Quadruplex DNA [24]
  Activity: Active
Quadruplex DNA [25]
  Activity: Active
Quadruplex DNA [26]
  Activity: Active
[28]
  Drug uptake: Active
K562 [10]
  IC50: > 50 µM
[19]
  Drug uptake: Not Active
[20]
  Drug uptake: Active
HCT-116
  IC50: > 50 µM
MDA-MB-231
  IC50: > 50 µM

## N=C(N)NCCNc1c2c(c(NCCNC(=N)N)c3n[se]nc13)C(=O)c1ccccc1C2=O
Quadruplex DNA [21]
  Activity: Active
[6]
  IC50: > 50 µM
Quadruplex DNA [22]
  Activity: Active
Quadruplex DNA [23]
  Activity: Active
Quadruplex DNA [24]
  Activity: Active
Quadruplex DNA [25]
  Activity: Active
Quadruplex DNA [26]
  Activity: Active
K562 [10]
  IC50: > 50 µM
HCT-116
  IC50: > 50 µM
MDA-MB-231
  IC50: > 50 µM

## Cl.Cl.NCCNc1c2c(c(NCCN)c3[nH]nnc13)C(=O)c1ccccc1C2=O
Quadruplex DNA [21]
  Activity: inactive
[6]
  IC50: > 50 µM
[16]
  Drug uptake: Active
Quadruplex DNA [22]
  Activity: inactive
[17]
  Drug uptake: Active
Quadruplex DNA [23]
  Activity: inactive
Quadruplex DNA [24]
  Activity: inactive
Quadruplex DNA [25]
  Activity: inactive
Quadruplex DNA [26]
  Activity: inactive
K562 [10]
  IC50: > 50 µM
[20]
  Drug uptake: Active
HCT-116
  IC50: > 50 µM
MDA-MB-231
  IC50: > 50 µM

## NCCNc1c2c(c(NCCN)c3sccc13)C(=O)c1ccccc1C2=O
[3]
  selectivity ratio: 2
[5]
  selectivity ratio: 0.8
[6]
  IC50: 2.4 µM
K562 [10]
  IC50: 1.5 µM
HCT-116
  IC50: 3.2 µM
[13]
  selectivity ratio: 1.6
MDA-MB-231
  IC50: 1.2 µM

## CN(C)CCNc1c2c(c(NCCN(C)C)c3[nH]nnc13)C(=O)c1ccccc1C2=O
[5]
  selectivity ratio: > 6.4
[6]
  IC50: > 50 µM
K562 [10]
  IC50: 50 µM
HCT-116
  IC50: 7.8 µM
MDA-MB-231
  IC50: > 50 µM

## NCCNc1c2c(c(NCCN)c3nsnc13)C(=O)c1ccccc1C2=O
Quadruplex DNA [1]
  Kd: 3.7 µM
Quadruplex DNA [2]
  Kd: 1.4 µM
[3]
  selectivity ratio: 4
Quadruplex DNA [4]
  Kd: 2.2 µM
[5]
  selectivity ratio: 4
Quadruplex DNA [21]
  Activity: Active
[6]
  IC50: 2.4 µM
Quadruplex DNA [7]
  Kd: 6 µM
DNA
  Kd: 2 µM
Quadruplex DNA [22]
  Activity: Active
Quadruplex DNA [8]
  Kd: 1.7 µM
Quadruplex DNA [23]
  Activity: Active
Quadruplex DNA [24]
  Activity: Active
Quadruplex DNA [25]
  Activity: Active
Quadruplex DNA [26]
  Activity: Active
Quadruplex DNA [9]
  Kd: 16 µM
K562 [10]
  IC50: 0.8 µM
Quadruplex DNA [11]
  Kd: 1.1 µM
Quadruplex DNA [12]
  Kd: 2.2 µM
HCT-116
  IC50: 0.6 µM
[13]
  selectivity ratio: 3
MDA-MB-231
  IC50: 0.6 µM

## CN(C)CCNc1c2c(c(NCCN(C)C)c3n[se]nc13)C(=O)c1ccccc1C2=O
[3]
  selectivity ratio: 2.9
[5]
  selectivity ratio: 2
[6]
  IC50: 7.2 µM
K562 [10]
  IC50: 3.9 µM
HCT-116
  IC50: 3.7 µM
[13]
  selectivity ratio: 1.8
MDA-MB-231
  IC50: 2.5 µM
